One test deals with J774A.1 macrophages. In words: Uptake and localization in macrophages by fluorescence microscopy. Format: cell-based, murine. The settings on record: 50 μM dansyl derivative, 5 min to 1 h; not complexed with LDL. Here is the method: J774A.1 cells were plated in 8-well chambered slides (Nalge Nunc International). Cells were gently washed twice with PBS, pH 7.4 before 5 min or 1 h exposure to 50 μM dansyl derivative of cholesterol ozonation product 5d or 5e, dansyl cholesterol derivative 9c or 9d, or dansyl hydrazine diluted in media without FCS (0.05% v/v final DMSO concentration). [drawing 28] Media was removed by aspiration and cells were fixed immediately in 95% ice cold methanol for 5 min. Cells were mounted in glycerol containing Antifade reagent (Molecular Probes). Fluorescence images were documented using DeltaVision Deconvolution microscope (API, Issaquah WA) equipped with a Photometrics CH350L liquid cooled CCD camera attached to an Olympus IX—70 inverted microscope. […] All images were deconvolved using constrained iterative algorithms (10 iterations) of DeltaVision software (softWoRx, v2.5). The deconvolved images were subsequently processed using softWoRx, v2.5.
In some experiments, murine macrophage RAW 264.7 (ECACC 91062702) cells were grown in RPMI (Gibco) with 10% FCS at 37° C. with 5% CO2. For fluorescence imaging, cells were incubated on cover slips in 6-well chambered plates (Costar) for 12 h, gently washed 3 times in PBS at pH 7.4, and incubated with 50 μM dansyl derivative of cholesterol ozonation product 5d or 5e, dansyl cholesterol derivative 9c or 9d, in RPMI with 10% FCS for 5, 15, 30, and 60 min. A solution of the dansyl derivative was then added in DMSO [final DMSO, 0.05% (v/v)]. Media was removed by aspiration, and cells were washed twice with PBS, followed by fixing in paraformaldehyde (3.7% in PBS) for 10 min. Cover slips were mounted in MOWIOL 4-88 (Calbiochem). Microscopy was performed using an inverted Zeiss Axioscope 2 Plus fluorescence microscope, and images were obtained with a Zeiss Axiocam digital camera using Axiovision software (version 3.1). The data were collected using a 63× oil immersion lens and DAPI filter (excitation 360/emission 460), and images were processed with Axiovision software and Adobe software (Photoshop 6.0).

For test [1], the system named is vascular smooth muscle cell line (VSMC). In words: LDH release cytotoxicity assay, VSMC. Format: cell-based. Particulars: Homo sapiens, 18 h. Here is the method:
(§1) Cytotoxicity assays. WI-L2 human B-lymphocyte line, HAAE-1 human abdominal aortic endothelial line, MH-S murine alveolar macrophage line, and J774A.1 murine tissue macrophage line were obtained from the ATCC. Human aortic endothelial cells (HAEC) and human vascular smooth muscle cells (VSMS) were obtained from Cambrex Bio Science. Jurkat E6-1T-lymphocytes were kindly provided by Dr. J. Kaye (The Scripps Research Institute). Cells were cultured in ATCC-recommended media with 10% fetal calf serum. Cells were incubated in a controlled atmosphere at 37° C., with 5 or 7% CO2. For lactate dehydrogenase (LDH) release assays, adherent cells were harvested either by addition of 0.05% trypsin/EDTA or by scraping. The cells obtained were seeded onto 96-well microtiter plates (25,000 cells/well) and allowed to recover for 24-48 h. […] Cytotoxicity was then determined by measuring lactate dehydrogenase (LDH) release from cells in culture. […] 100% Cytotoxicity was defined as the maximum amount of LDH released by dead cells as shown by trypan blue exclusion, or the highest amount of LDH detected upon lysis of cells by 0.9% Triton X-100. The IC50 values were determined by comparison of the raw duplicate data for concentration versus cytotoxicity (%) to non-linear regression analysis (Hill plot) using Graphpad v3.0 software for Macintosh. […]

The target in a further test is LDL / apoB-100 (Homo sapiens, UniProt P04114). In words: Circular dichroism of LDL secondary structure. The settings on record: LDL 100 μg/ml with compound 10 μM, PBS pH 7.4, 37° C. A general note: Circular dichroism is widely used to follow secondary structure.
Chain of LDL / apoB-100 (P04114 28-4563, species assumed): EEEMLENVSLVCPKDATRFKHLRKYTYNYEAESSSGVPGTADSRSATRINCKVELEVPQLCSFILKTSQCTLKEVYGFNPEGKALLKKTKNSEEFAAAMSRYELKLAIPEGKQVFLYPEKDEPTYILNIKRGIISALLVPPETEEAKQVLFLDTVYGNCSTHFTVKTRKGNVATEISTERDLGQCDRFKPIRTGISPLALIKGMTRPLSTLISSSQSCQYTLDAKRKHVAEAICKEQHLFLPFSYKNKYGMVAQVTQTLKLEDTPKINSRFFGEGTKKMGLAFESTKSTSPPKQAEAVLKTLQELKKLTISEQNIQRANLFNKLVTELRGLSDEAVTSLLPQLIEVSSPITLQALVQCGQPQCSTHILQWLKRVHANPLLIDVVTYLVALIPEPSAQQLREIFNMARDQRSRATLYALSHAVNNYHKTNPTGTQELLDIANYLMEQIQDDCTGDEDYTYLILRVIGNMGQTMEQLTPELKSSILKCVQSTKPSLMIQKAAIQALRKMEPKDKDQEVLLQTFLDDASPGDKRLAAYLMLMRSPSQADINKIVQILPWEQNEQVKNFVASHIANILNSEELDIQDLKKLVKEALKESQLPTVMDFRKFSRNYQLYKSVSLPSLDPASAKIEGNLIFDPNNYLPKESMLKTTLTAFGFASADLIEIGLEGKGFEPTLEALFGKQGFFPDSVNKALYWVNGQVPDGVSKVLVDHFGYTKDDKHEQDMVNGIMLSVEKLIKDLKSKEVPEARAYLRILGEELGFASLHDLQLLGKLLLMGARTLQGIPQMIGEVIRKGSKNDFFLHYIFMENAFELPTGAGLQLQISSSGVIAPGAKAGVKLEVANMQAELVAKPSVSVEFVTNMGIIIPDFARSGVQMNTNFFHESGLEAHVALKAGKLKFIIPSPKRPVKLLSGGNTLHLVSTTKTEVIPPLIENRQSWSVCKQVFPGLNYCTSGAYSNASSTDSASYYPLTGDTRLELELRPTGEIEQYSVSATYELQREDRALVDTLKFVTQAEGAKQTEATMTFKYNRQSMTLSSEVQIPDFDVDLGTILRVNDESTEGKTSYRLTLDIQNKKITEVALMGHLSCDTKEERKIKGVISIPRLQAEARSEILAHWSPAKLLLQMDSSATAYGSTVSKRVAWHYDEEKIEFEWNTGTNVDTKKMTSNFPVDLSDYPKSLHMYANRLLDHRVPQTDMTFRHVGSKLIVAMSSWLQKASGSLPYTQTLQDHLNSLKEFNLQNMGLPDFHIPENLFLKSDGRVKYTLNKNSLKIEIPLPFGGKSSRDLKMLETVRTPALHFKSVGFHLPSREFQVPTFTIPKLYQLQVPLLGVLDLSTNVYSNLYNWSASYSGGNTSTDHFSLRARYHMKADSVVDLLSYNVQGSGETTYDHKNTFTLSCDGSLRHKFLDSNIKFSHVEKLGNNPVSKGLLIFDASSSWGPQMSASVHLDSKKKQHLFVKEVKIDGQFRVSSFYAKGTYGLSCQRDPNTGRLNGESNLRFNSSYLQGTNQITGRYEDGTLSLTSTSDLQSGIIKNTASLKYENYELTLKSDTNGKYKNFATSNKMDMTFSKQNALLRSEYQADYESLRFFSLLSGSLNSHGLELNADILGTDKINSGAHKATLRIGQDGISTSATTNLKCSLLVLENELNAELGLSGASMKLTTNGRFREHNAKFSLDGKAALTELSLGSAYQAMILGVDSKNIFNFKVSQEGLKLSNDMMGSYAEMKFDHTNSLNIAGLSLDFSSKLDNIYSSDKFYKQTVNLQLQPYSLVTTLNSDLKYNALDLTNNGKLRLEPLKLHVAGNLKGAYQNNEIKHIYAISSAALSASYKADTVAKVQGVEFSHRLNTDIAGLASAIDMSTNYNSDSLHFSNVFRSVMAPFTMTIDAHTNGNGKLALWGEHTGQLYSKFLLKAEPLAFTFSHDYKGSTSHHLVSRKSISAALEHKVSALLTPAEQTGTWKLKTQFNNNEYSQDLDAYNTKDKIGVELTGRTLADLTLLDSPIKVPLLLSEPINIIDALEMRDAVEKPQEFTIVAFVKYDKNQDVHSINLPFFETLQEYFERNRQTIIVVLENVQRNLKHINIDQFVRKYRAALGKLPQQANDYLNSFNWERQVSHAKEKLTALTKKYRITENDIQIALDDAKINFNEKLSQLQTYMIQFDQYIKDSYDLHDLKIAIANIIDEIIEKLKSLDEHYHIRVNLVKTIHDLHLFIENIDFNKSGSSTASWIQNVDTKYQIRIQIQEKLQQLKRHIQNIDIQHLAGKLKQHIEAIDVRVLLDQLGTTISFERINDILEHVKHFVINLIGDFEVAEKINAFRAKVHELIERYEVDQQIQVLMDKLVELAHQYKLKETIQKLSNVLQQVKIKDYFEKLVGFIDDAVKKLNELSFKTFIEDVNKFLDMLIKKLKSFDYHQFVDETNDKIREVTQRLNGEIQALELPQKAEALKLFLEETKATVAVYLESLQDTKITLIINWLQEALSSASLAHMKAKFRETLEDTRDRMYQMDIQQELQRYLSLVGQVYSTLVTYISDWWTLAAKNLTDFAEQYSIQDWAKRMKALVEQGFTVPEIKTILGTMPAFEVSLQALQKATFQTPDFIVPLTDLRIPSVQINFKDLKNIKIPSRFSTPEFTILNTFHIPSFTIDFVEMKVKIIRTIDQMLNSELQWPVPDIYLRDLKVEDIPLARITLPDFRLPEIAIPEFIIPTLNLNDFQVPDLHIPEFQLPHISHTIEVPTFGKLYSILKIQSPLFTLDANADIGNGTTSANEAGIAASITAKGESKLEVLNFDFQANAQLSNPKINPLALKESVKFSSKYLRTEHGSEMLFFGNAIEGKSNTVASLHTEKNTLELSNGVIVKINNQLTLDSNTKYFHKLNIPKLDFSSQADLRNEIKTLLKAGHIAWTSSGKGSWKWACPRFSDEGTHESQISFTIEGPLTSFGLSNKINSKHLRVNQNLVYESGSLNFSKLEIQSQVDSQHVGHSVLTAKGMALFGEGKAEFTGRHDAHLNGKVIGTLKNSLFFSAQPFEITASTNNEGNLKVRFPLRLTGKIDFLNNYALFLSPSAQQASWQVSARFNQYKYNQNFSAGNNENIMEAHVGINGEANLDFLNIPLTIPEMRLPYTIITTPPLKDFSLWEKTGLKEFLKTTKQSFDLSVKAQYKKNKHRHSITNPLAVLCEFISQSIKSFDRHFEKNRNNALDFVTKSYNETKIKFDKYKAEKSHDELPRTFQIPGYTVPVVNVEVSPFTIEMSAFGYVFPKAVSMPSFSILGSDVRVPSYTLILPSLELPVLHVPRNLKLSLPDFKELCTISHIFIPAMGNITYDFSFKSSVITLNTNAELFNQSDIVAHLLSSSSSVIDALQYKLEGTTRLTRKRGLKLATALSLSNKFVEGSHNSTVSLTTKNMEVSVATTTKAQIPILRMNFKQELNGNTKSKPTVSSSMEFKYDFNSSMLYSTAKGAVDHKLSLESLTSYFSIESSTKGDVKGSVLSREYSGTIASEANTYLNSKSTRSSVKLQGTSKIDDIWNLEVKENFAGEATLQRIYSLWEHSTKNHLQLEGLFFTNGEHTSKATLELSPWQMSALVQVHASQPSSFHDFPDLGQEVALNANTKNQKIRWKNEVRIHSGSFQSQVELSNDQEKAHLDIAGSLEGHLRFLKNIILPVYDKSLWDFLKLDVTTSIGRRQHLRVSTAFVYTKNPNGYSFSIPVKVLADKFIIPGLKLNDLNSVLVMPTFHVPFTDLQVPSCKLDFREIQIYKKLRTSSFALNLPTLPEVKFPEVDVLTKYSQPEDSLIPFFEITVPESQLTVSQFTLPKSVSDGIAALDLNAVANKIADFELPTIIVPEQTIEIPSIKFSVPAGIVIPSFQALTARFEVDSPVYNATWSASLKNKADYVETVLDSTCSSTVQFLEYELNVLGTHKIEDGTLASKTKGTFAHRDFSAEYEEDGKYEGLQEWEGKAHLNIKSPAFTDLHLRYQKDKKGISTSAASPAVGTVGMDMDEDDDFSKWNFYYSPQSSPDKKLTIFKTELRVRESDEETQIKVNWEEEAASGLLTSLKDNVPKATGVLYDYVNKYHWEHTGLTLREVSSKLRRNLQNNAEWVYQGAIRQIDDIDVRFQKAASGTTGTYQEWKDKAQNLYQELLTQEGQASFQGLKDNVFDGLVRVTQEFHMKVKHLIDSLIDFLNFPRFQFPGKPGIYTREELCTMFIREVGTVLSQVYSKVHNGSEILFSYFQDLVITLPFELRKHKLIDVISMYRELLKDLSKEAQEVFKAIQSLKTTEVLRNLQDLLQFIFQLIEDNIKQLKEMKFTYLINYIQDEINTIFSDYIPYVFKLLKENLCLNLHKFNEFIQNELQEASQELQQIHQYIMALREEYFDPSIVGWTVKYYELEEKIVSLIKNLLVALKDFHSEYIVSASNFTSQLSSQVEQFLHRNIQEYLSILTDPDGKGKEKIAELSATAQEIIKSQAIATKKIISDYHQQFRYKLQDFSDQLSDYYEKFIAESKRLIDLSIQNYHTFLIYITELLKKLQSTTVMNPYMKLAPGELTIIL
Test [2] concerns Class A scavenger receptor (SR-A). In words: Scavenger receptor expression by flow cytometry, SR-A. The class given is cell-based, murine. Particulars: for upregulation of SR-A: J774A.1, 25 μM with LDL (100 μg/ml protein), 6 h; for SR-A expression: cultured macrophages, in the absence of LDL. Here is the method: (§2) Cell surface CD36 and SR-A were measured by flow cytometry using CD36 (BD Biosciences Pharmingen, San Diego, Calif.) and CD204 (Serotec, Oxford, UK) specific monoclonal antibodies. See Liao et al. (2000) Arterioscler. Thromb. Vasc. Biol. 20: 1968-75; Hu et al. (1996) Blood 87: 2020-28. Murine macrophage J774A.1 cells were serum-starved overnight in media with 0.5% BSA. Cells (1×10^6) treated with cholesterol ozonation products or cholesterol ozonation product complexed with LDL for specified times were then washed twice with PBS. After harvesting the cells by scraping, they were fixed with 6% paraformaldehyde for 20 min. Cells were then resuspended in PBS containing 2% heat-inactivated FCS, 0.05% NaN3 and appropriate primary antibody, antibody conjugate or isotype control (1:100 dilution) and incubated on ice for 30 min. Expression of either CD36 or SR-A was determined with CD36 (BD Biosciences Pharmingen, San Diego, Calif.) and CD204 (Serotec, Oxford, U.K.) specific monoclonal antibodies, respectively. After washing off the primary antibody, secondary antibodies were added, cells were washed again, then analyzed on a FACS calibur 2 (Becton Dickinson, Sparks, Md.) flow cytometer and analyzed by CellQuant software. Results were expressed as mean fluorescence intensity±standard error of the mean (SEM) of at least duplicate determinations. Significance was determined using a student two-tail t test, with (*) indicating p<0.05, and (**) indicating p<0.01 versus the control.
(Flow cytometry measures light scatter and fluorescence of single cells or particles in a stream.)

In a further test the test system is CD36. In words: Scavenger receptor expression by flow cytometry, CD36. Format: cell-based, murine. The protocol:
as §2

The subject of test [3] is WI-L2 human B-lymphocyte line. In words: LDH release cytotoxicity assay, WI-L2. The class given is cell-based. Particulars: Homo sapiens; WIL2; LDH release, 0-100 μM, 18 h. Here is the method:
Cytotoxicity assays. WI-L2 human B-lymphocyte line, HAAE-1 human abdominal aortic endothelial line, MH-S murine alveolar macrophage line, and J774A.1 murine tissue macrophage line were obtained from the ATCC. Human aortic endothelial cells (HAEC) and human vascular smooth muscle cells (VSMS) were obtained from Cambrex Bio Science. Jurkat E6-1T-lymphocytes were kindly provided by Dr. J. Kaye (The Scripps Research Institute). Cells were cultured in ATCC-recommended media with 10% fetal calf serum. Cells were incubated in a controlled atmosphere at 37° C., with 5 or 7% CO2. For lactate dehydrogenase (LDH) release assays, adherent cells were harvested either by addition of 0.05% trypsin/EDTA or by scraping. The cells obtained were seeded onto 96-well microtiter plates (25,000 cells/well) and allowed to recover for 24-48 h. Cells were washed gently and media replaced with fresh media containing 5% fetal calf serum. […] Cytotoxicity was then determined by measuring lactate dehydrogenase (LDH) release from cells in culture. […] 100% Cytotoxicity was defined as the maximum amount of LDH released by dead cells as shown by trypan blue exclusion, or the highest amount of LDH detected upon lysis of cells by 0.9% Triton X-100. The IC50 values were determined by comparison of the raw duplicate data for concentration versus cytotoxicity (%) to non-linear regression analysis (Hill plot) using Graphpad v3.0 software for Macintosh.
The following cell lines were employed in this study: a human B-lymphocyte (WI-L2) described in Levy et al., Cancer 22, 517 (1968); a T-lymphocyte cell line (Jurkat E6.1) described in Weiss et al., J. Immunol. 133, 123 (1984); a vascular smooth muscle cell line (VSMC) and an abdominal aorta endothelial (HAEC) cell line described in Folkman et al., Proc. Natl. Acad. Sci. U.S.A. 76, 5217 (1979); a murine tissue macrophage (J774A.1) described in Ralph et al., J. Exp. Med. 143, 1528 (1976); and an alveolar macrophage cell line (MH-S) described in Mbawuike et al., J. Leukoc. Biol. 46, 119 (1989).
On the technique in general: LDH in the medium is a marker of cell lysis.

Test [4] has as its system Human aortic endothelial cells (HAEC). In words: LDH release cytotoxicity assay, HAEC. Particulars: Endothelial cell, 18 h. The class given is cell-based. The protocol:
as §1

[5] abbreviates: J774A.1, 25 μM complexed with LDL (100 μg/ml protein), 6 h.
Setting [6] is: cultured macrophages, in the absence of LDL.

Like-named read-outs stand apart in the source and are kept apart here.

The source of these data is patent publication US20070059242A1, “METHODS TO IDENTIFY THERAPEUTIC AGENTS” (priority 2005, published 2007).

What is called IC50 is the midpoint of a concentration-inhibition curve.

Experimental for LDL / apoB-100: Circular dichroism. […] Spectra were recorded in the peptidic range (200-260 nm). To increase the signal-to-noise ratio, multiple spectra (three) were averaged for each measurement.

Regarding `CC(C)CCC[C@@H](C)[C@H]1CCC2C(CC=O)C([C@@]3(C)CC[C@H](O)CC3=O)CC[C@@]21C` (stereo partly drawn) [4a, 3β-Hydroxy-5-oxo-5,6-secocholestan-6-al], in the test with J774A.1 macrophages, the “uptake and localization in macrophages” value is given as “efficiently taken up by macrophages”. The IC50 in test [1] (LDH release, 0-100 μM, read-out: IC50) turned out to be 21.9 ± 2.2 µM; in test [3], 10.9 ± 1.6 µM; in test [4] (HAEC, LDH release, 0-100 μM, read-out: IC50) it was 24.6 ± 3.2 µM. Besides, the “random coil of LDL” value on LDL / apoB-100 is on record as about 39±2%. The “α helical structure of LDL” value on LDL / apoB-100 is recorded as about 23±5%. The “upregulation of SR-A” value in test [2] is recorded as “approximately 3 fold”. In test [2], the SR-A expression entry is on record as “did not increase expression”. For the same compound, the CD36 expression entry was “little or no effect” with CD36 (setting [5]) and “did not increase expression” with CD36 (setting [6]).

For `CC(C)CCC[C@@H](C)[C@H]1CCC2C3C(CC[C@@]21C)[C@@]1(C)CC[C@H](O)C[C@@]1(O)[C@@H]3C=O` (stereo partly drawn) [5a, 3β-Hydroxy-5β-hydroxy-B-norcholestane-6β-carboxaldehyde], the “uptake and localization in macrophages” value with J774A.1 macrophages is “efficiently taken up by macrophages”. Besides, the IC50 stood at 29.8 ± 2.8 µM in test [1], 17.7 ± 2.3 µM in test [3] and 18.2 ± 1.9 µM in test [4]. The “random coil of LDL” value on LDL / apoB-100 was found to be 32±4%. The “α helical structure of LDL” value at LDL / apoB-100 was about 20±2%. Moreover, the “upregulation of SR-A” value in test [2] was “approximately 3 fold”. The SR-A expression result in test [2] is on record as “did not increase expression”. Besides, the CD36 expression result is given as “little or no effect” with CD36 (setting [5]) and “did not increase expression” in the test with CD36 (setting [6]).
